# Results: patent publication EP0032304B1, “Antibiotic compositions” (ELI LILLY AND COMPANY, priority 1979, dated 1981)
# Structures can show the parent of a compound that is named as a salt. Where two headings read alike, the source gives them in different places.
# Tests used:
# M. Hyorhinis HH = experiment: Minimal inhibitory concentration vs mycoplasma in contaminated LLC-MK2 tissue culture; format: cell-based, Mycoplasma hyorhinis; settings: for MIC: Mesomycoplasma hyorhinis
# Protocol: (§1) Suspensions of monkey kidney cells, LLC-MK2, in medium 199 (Morgan et al., Proc. Soc. Exp. Biol. Med, 73, 1 1950), were inoculated with cultures of the indicated mycoplasma to achieve an inoculum concentration of 1.5xlO' organisms/ml of cell suspension. Control cultures and the mycoplasma positive cultures included in each test were incubated at 37°C for 3-5 days. After incubation the medium in all cultures was changed to 1% horse serum in Medium 199 containing 1.68 g of sodium bicarbonates per liter. The tissue cultures innoculated with mycoplasma (except for mycoplasma positive control cultures) were then treated with the indicated individual antibiotics alone or with the combination of antibiotics shown in Table 1. When combinations of antibiotics were tested equal amounts of the antibiotics were used.
# (§2) Solutions of the antibiotics were made up in Medium 199 containing 1.68 g of sodium bicarbonate per liter of medium. The solutions were sterile filtered through a millipore filter having a 0.2 µm porosity and were stored at 4°C prior to use. Two fold dilutions of the antibiotic solutions were made and each antibiotic solution was added to separate cultures to determine the minimal inhibitory concentration. The medium in each culture was changed twice a week with fresh antibiotic solution at the same concentration being added at each medium change. After two weeks, medium changes were made without antibiotic for two more weeks. Samples of the cultures were taken before each medium change in the last two weeks and were cultured to determine the presence of mycoplasma.
# Cell suspensions of LLC-MK2 (Monkey kidney cell line) in Medium 199 containing 1% house serum of 4 ml volumes in tissue culture flasks were inoculated with a 3 day old culture of Mycoplasma hyorhinis (5 x 10^8 organism per ml in Eaton's broth). Approximately 2 to 3% of the mycoplasma culture per volume of the cell suspension was used. After inoculation the cell suspensions were incubated at a temperature of 37°C for from three to five days. Control cultures were also made up in the same manner. After incubation the medium in the control cultures and the mycoplasma positive cultures was replaced with fresh Medium 199 containing 1.68 g of sodium bicarbonate and 1% horse serum. The cultures were then treated with solutions of tylosin, tobramycin, and with the combination of tylosin and tobramycin in Medium 199 containing 1.68 g of sodium bicarbonate per liter. Solutions of each individual antibiotic and of the combination at a concentration of 1000 µg/ml were prepared. […] By two-fold serial dilution solutions at various concentrations down to 0.39 µg/ml were prepared. Each of the antibiotic solutions was added to a separate flask containing the tissue culture.
# The tissue culture medium was replaced in each flask twice a week and at each medium change for two weeks a fresh solution of the antibiotic at the same concentration was added. After two weeks fresh medium replacements were made for two more weeks without the addition of antibiotic. Samples of each culture were taken before each medium replacement and were cultured to determine the presence of mycoplasma.
# M. Hyorhinis = experiment: as above; format: cell-based; settings: LLC-MK2 tissue culture contaminated with M. Hyorhinis, combinations contain equal amounts of each antibiotic
# Protocol: as §1, §2
# Cell suspensions of LLC-MK2 (Monkey kidney cell line) in Medium 199 containing 1% house serum of 4 ml volumes in tissue culture flasks were inoculated with a 3 day old culture of Mycoplasma hyorhinis (5 x 10^8 organism per ml in Eaton's broth). Approximately 2 to 3% of the mycoplasma culture per volume of the cell suspension was used. After inoculation the cell suspensions were incubated at a temperature of 37°C for from three to five days. Control cultures were also made up in the same manner. […]
# [1] = 28 day weight gain and feed utilization trial in post weaned pigs; format: in vivo; settings: 28 days; for Daily feed intake (Rel) / Daily gain (Rel) / Feed efficiency (Rel) / Final weight (Rel): comparison to negative controls (100), 100 ppm in feed; for Daily feed intake x̄ (kg) per animal / Daily gain x̄ (g) per animal / Feed efficiency x̄ (kg feed/kg gain) / Final weight x̄ (kg) per animal: post weaned pigs, 100 ppm in feed (combination 100 ppm of each); for Final weight x̄ (kg) per animal: mean of two like trials
# Protocol: The trials were carried out in pens with 6 pigs per pen for 28 days. The pigs were of mixed sex having an average initial body weight of 12.89 kg and an average age of six weeks. The animals received water before and after feeding. The animals were fed twice daily with feed having the following composition.
# The tylosin-apramycin combination was compared in the trials with tylosin alone and with apramycin alone. The antibiotics and the combination thereof were administered in the animal feed at a level of 100 ppm, and, in the case of the combination; at 100 ppm for each antibiotic.
# E. coli = experiment: 21 day trial in weanling pigs: treatment and control of colibacillosis, weight gain, feed efficiency, diarrhoea; format: in vivo; settings: for Diarrhoea index: score 1 (formed stools only) to 5 (liquid stools only), scored twice daily for 13 days and once on the 14th day, 110 ppm in feed; for Percent increase over controls: Reduction of diarrhoea / Percent increase over controls: Average daily weight gain / Percent increase over controls: Improved feed efficiency / Average daily feed / Average daily gain / Feed efficiency: weanling pigs, 21 days; for Percent increase over controls: Reduction of diarrhoea: difference in incidence as percentage of the control incidence; for Percent increase over controls: Average daily weight gain / Percent increase over controls: Improved feed efficiency: vs non-treated control group; for Average daily feed / Average daily gain / Feed efficiency: tylosin phosphate and apramycin sulfate at 110 ppm in feed, combination 110 ppm of each
# Source text: Tylosin and apramycin were each administered in the feed at a level of 110 ppm. The antibiotic combination was likewise administered in the feed containing both antibiotics at the 110 ppm level. The results are shown as a percentage increase over a non-treated control group as calculated from the statistical evaluation of the data obtained in the study.
# The efficacy of the tylosin-apramycin combination in the treatment and control of colibacillosis is shown by the results obtained in a 21 day trial with weanling pigs. The pigs were divided by weight into treatment and control groups of eight pigs. Each treatment was randomly assigned to three groups. The animals were fed a normal ration ad libitum with the treatment groups receiving feed containing 110 ppm of each antibiotic. Weight gains, feed efficiency and the incidence of diarrhoea were used to measure the response to treatment.
# Ninety-six weanling pigs averaging 6.0 kg in weight were randomly allocated by weight into 12 pens of 8 pigs per pen. Four treatments were used in the study as follows: 1) Non-medicated controls; 2) apramycin fed at 110 ppm; 3) tylosin phosphate fed at 110 ppm; and 4) apramycin sulfate and tylosin phosphate both fed at 110 ppm. Each treatment was replicated through three pens.
# The pigs were fed for 21 days ad libitum a ration of 20% protein corn-soy meal with some rolled oats included for roughage. Vitamins and minerals were added as needed to balance the ration. The only difference in the rations fed to all pigs was the inclusion of the appropriate antibiotic or antibiotic combination in each of the medicated rations. All feed was weighed as fed, with the feed remaining at the end of the weigh period, weighed and discarded. The pigs were weighed at the initiation of the study and weekly thereafter.
# Diarrhoea scores were maintained on a pen basis. The scoring was done by the same person on a twice daily schedule for the first 13 days and once only on the 14th day. The scoring index was the same as that shown in footnote 2 of Table 5.
# [2] = tested on: P. hemolytica strain 41 D; experiment: In vitro MIC and checkerboard titration of the combination; format: cell-based, Pasturella hemolytica; settings: antibiotic alone
# Protocol: This organism can cause pneumonia in cattle which in cases of severe infection can lead to death. […] The synergistic activity of the combination of the two antibiotics was determined by the "checkerboard" titration method. In this method two antibiotics are tested in serial dilutions and in all combinations of these dilutions together to find the concentrations of each antibiotic, both alone and in combination, that inhibit growth of the test microorganism. The nature of the interaction between the two antibiotics may be determined algebraically or geometrically. In the algebraic method, the concentration of each antibiotic in the combination that inhibits growth is expressed as a fraction of the concentration that produces the same effect when the antibiotic is used alone. When the sum of these fractions is one, the combination is additive, when the sum is less than one, the combination is synergistic; and when the sum is greater than one, the combination is antagonistic.
# Below are shown the calculations using data obtained in the in vitro test of tylosin, apramycin and the combination of the two antibiotics against P. hemolytica.
# M. Hyorhinis HEK = experiment: Minimal inhibitory concentration vs mycoplasma in contaminated LLC-MK2 tissue culture; format: cell-based; settings: Mesomycoplasma hyorhinis; LLC-MK2 tissue culture contaminated with M. Hyorhinis HEK (isolate from human embryonic kidney tissue); combinations contain equal amounts of each antibiotic
# Protocol: as §1, §2
# M. gallisepticum 36 F = experiment: as above; format: cell-based; settings: LLC-MK2 tissue culture contaminated with M. gallisepticum 36 F (chicken mycoplasma), combinations contain equal amounts of each antibiotic
# Protocol: as §1, §2
# M. gallisepticum 41313 = experiment: as above; format: cell-based; settings: Mycoplasmoides gallisepticum; LLC-MK2 tissue culture contaminated with M. gallisepticum 41313 (chicken mycoplasma); combinations contain equal amounts of each antibiotic
# Protocol: as §1, §2
# Swine L3F12F7 = experiment: as above; format: cell-based; settings: Mycoplasmopsis arginini; LLC-MK2 tissue culture contaminated with Swine L3F12F7 (mycoplasma isolated from swine); combinations contain equal amounts of each antibiotic
# Protocol: as §1, §2
# [3] = LLC-MK2 tissue culture contaminated with M. Hyorhinis HH (isolate from human heart tissue), combinations contain equal amounts of each antibiotic
# [4] = LLC-MK2 tissue culture contaminated with M. Hyorhinis HH (isolate from human heart tissue), combinations contain equal amounts of each antibiotic, read-out: Minimal inhibitory concentration
# [5] = 110 ppm of each antibiotic in feed
compound,measurement,setting,value
Magnamycin,Minimal inhibitory concentration,M. Hyorhinis HH; [3],>800 µg/mL
Gentamicin,Minimal inhibitory concentration,M. Hyorhinis,100 µg/mL
CN[C@@H]1[C@@H](O[C@H]2O[C@H](CO)[C@@H](N)[C@H](O)[C@H]2O)OC2C[C@@H](N)[C@@H](O[C@H]3[C@H](O)[C@@H](O)[C@H](N)C[C@@H]3N)OC2[C@@H]1O (stereo partly drawn) [Apramycin],MIC,M. Hyorhinis HH; [4],600 µg/mL
same,Daily feed intake (Rel),[1],(100) percentage
same,Daily gain (Rel),[1],(110) percentage
same,Feed efficiency (Rel),[1],(92) percentage
same,Final weight (Rel),[1],(102) percentage
same,Daily feed intake x̄ (kg) per animal,[1],"0,92 kg"
same,Daily gain x̄ (g) per animal,[1],467 g
same,Feed efficiency x̄ (kg feed/kg gain),[1],"1,96 kg feed/kg gain"
same,Final weight x̄ (kg) per animal,[1],"25,62 kg"
same,Diarrhoea index,E. coli,1.64
same,Percent increase over controls: Reduction of diarrhoea,E. coli; [5],42.8%
same,Percent increase over controls: Average daily weight gain,E. coli; [5],19.0%
same,Percent increase over controls: Improved feed efficiency,E. coli; [5],10.3%
same,Average daily feed,E. coli,0.47 kg
same,Average daily gain,E. coli,0.29 kg
same,Feed efficiency,E. coli,1.64
same,MIC,[2],25 µg/mL
Neomycin,Minimal inhibitory concentration,M. Hyorhinis,100 µg/mL
NC[C@H]1O[C@H](O[C@H]2[C@H](O)[C@@H](O[C@H]3O[C@H](CO)[C@@H](O)[C@H](N)[C@H]3O)[C@H](N)C[C@@H]2N)[C@H](N)C[C@@H]1O [Tobramycin],MIC,"M. Hyorhinis HH; Example 4, procedure of Example 1, LLC-MK2 tissue culture, read-out: MIC",200 µg/mL
same,MIC,M. Hyorhinis; Mesomycoplasma hyorhinis,100 µg/mL
same,MIC,M. Hyorhinis HEK,> 500 µg/mL
same,MIC,M. gallisepticum 36 F; Mycoplasmoides gallisepticum,100 µg/mL
same,MIC,M. gallisepticum 41313,200 µg/mL
same,MIC,Swine L3F12F7,50 µg/mL
NC[C@H]1O[C@H](O[C@H]2[C@H](O)[C@@H](O[C@H]3O[C@H](CO)[C@@H](O)[C@H](N)[C@H]3O)[C@H](N)C[C@@H]2N)[C@H](N)[C@@H](O)[C@@H]1O [Nebramycin Factor 5],Minimal inhibitory concentration,M. Hyorhinis HH; [3],200 µg/mL
CO[C@@H]1[C@@H](O[C@@H]2O[C@H](C)[C@@H](O[C@H]3C[C@@](C)(O)[C@@H](OC(=O)CC(C)C)[C@H](C)O3)[C@H](N(C)C)[C@H]2O)[C@@H](CC=O)C[C@@H](C)[C@@H](O)/C=C/C=C/C[C@@H](C)OC(=O)C[C@H]1O [Leucomycin],Minimal inhibitory concentration,M. Hyorhinis HH; [3],>400 µg/mL
same,MIC,M. Hyorhinis HH; [4],400 µg/mL
Spiromycin,Minimal inhibitory concentration,M. Hyorhinis HH; [3],>800 µg/mL
Tylosin tartrate,Minimal inhibitory concentration,M. Hyorhinis HH; [3],200 µg/mL
same,Minimal inhibitory concentration,M. gallisepticum 36 F,>800 µg/mL
CC[C@H]1OC(=O)C[C@@H](O)[C@H](C)[C@@H](O[C@@H]2O[C@H](C)[C@@H](O[C@H]3C[C@@](C)(O)[C@@H](O)[C@H](C)O3)[C@H](N(C)C)[C@H]2O)[C@@H](CC=O)C[C@@H](C)C(=O)/C=C/C(C)=C/[C@@H]1CO[C@@H]1O[C@H](C)[C@@H](O)[C@@H](OC)[C@H]1OC [Tylosin],Minimal inhibitory concentration,M. Hyorhinis HH; [3],200 µg/mL
same,MIC,M. Hyorhinis HEK,> 200 µg/mL
same,MIC,Swine L3F12F7,200 µg/mL
same,Daily feed intake (Rel),[1],(100) percentage
same,Daily gain (Rel),[1],(106) percentage
same,Feed efficiency (Rel),[1],(97) percentage
same,Final weight (Rel),[1],(102) percentage
same,Daily feed intake x̄ (kg) per animal,[1],"0,92 kg"
same,Daily gain x̄ (g) per animal,[1],449 g
same,Feed efficiency x̄ (kg feed/kg gain),[1],"2,07 kg feed/kg gain"
same,Final weight x̄ (kg) per animal,[1],"25,58 kg"
same,mean diarrhoea scores vs time in days (incidence of diarrhoea),"E. coli; plot in the accompanying drawing, 110 ppm of each antibiotic in feed",some effectiveness
same,Diarrhoea index,E. coli,2.10
same,Percent increase over controls: Reduction of diarrhoea,E. coli; [5],26.4%
same,Percent increase over controls: Average daily weight gain,E. coli; [5],29.7%
same,Percent increase over controls: Improved feed efficiency,E. coli; [5],11.4%
same,Average daily feed,E. coli,0.51 kg
same,Average daily gain,E. coli,0.31 kg
same,Feed efficiency,E. coli,1.62
same,MIC,[2],50 µg/mL
NCC1OC(OC2C(N)CC(N)C(OC3OC(CO)C(O)C(N)C3O)C2O)C(N)CC1O (stereo not drawn) [Tobramycin sulfate],MIC,M. Hyorhinis HH; [4],200 µg/mL
CO[C@H]1C[C@H](O[C@H]2[C@H](C)[C@@H](O[C@@H]3O[C@H](C)C[C@H](N(C)C)[C@H]3O)[C@@H](C)C[C@@]3(CO3)C(=O)[C@H](C)[C@@H](O)[C@@H](C)[C@@H](C)OC(=O)[C@@H]2C)O[C@@H](C)[C@@H]1O [Oleandomycin],MIC,M. Hyorhinis HH; [4],400 µg/mL
